Experiments:
[1] = Identification of violacein metabolites in RLMs by LC-QTOF; assay type: in vitro ADME, rat; conditions: all samples after 120 min of reaction, 105 µM violacein, 5 mg/mL protein
Method: The metabolism of violacein was investigated using HLMs and RLMs, by incubating the samples for 120 min under four conditions (n = 1): zero sample, phase I-only incubation, phase I and II incubation, and phase II-only incubation, as described by Godoi et al..
For all samples, 25 µL of the 843 µM violacein stock solution was added to propylene tubes and evaporated to dryness under a nitrogen stream. The dried residue was then reconstituted with 2 µL of methanol, ensuring that the final organic solvent concentration remained below 1% to minimize any potential impact on microsomal activity, as described by Jia et al..
To assess phase I metabolism, 148 μL of an NADPH-regenerating system containing 1.1 mM NADP+, 10 mM glucose-6-phosphate, 1 U/mL glucose-6-phosphate dehydrogenase, 5 mM sodium citrate, and 66 mM magnesium chloride in 100 mM phosphate buffer (pH 7.4) were added to the tubes. The solutions were pre-incubated for 5 min at 37 °C and 300 rpm in an MTC 100 thermo shaker incubator, and metabolic reactions were initiated by adding 50 μL of HLMs or RLMs (20 mg/mL), to yield final concentrations of 105 µM violacein and 5 mg of microsomal protein/mL. […]
The acquired chromatograms and mass spectra were analyzed using Insight Explore software version 1.0.0.0 (Shimadzu, Kyoto, Japan). […]

[2] = tested on: parasitemia; set-up: method as in PMID 19273690; conditions: C57BL/6 mice, three consecutive days, 3.75 mg/kg/day; cited from earlier work

O=C1NC(c2c[nH]c3ccc(O)cc23)=C/C1=C1\C(=O)Nc2ccccc21 [violacein]
Violacein metabolized [1]: Approximately 50% | Reduction in parasitemia [2]: 82%

— paper PMC12114947, “Evaluation of Violacein Metabolic Stability and Metabolite Identification in Human, Mouse, and Rat Liver Microsomes” (Pharmaceutics, 2025)
